# Test results published in patent US6716574B2, “Osp-C derived peptide fragments” (Dako A/S, priority 1996, dated 2004).
# Square brackets hold non-standard residues; d marks the D form. Thz = O=C(O)[C@@H]1CSCN1
# B1: rOspCfl from B. burgdorferi sensu stricto: full-length recombinant OspC from strain DK7 of Borrelia burgdorferi sensu stricto (SEQ ID NO: 5) (protein)
# chain: MKKNTLSAILMTLFLFISCNNSGKDGNTSANSADESVKGPNLTEISKKITDSNAVLLAVKEVEALLSSIDELAKAIGKKIKNDGSLGDEANHNESLLAGAYTISTLITQKLSKLNGSEGLKEKIAAAKKCSEEFSTKLKDNHAQLGIQGVTDENAKKAILKANAAGKDKGVEELEKLSGSLESLSKAAKEMLANSVKELTSPVVVESPKKP
# modifications: Borrelia burgdorferi sensu stricto
# B2: B. afzelii derived rOspCt: recombinant B. afzelii DK26 OspC truncate lacking the seven C-terminal amino acids (protein)
# chain: CNNSGKGGDSASTNPADESAKGPNLTEISKKITDSNAFVLAVKEVETLVLSIDELAKKAIGQKIDNNNGLAALNNQNGSLLAGAYAISTLITEKLSKLKNLEELKTEIAKAKKCSEEFTNKLKSGHADLGKQDATDDHAKAAILKTHATTDKGAKEFKDLFESVEGLLKAAQVALTNSVKELTSPVV
# modifications: left off: small tags and cut ends
# notes: recombinant B. afzelii DK26 OspC truncate lacking the seven C-terminal amino acids
# B3: rOspCfl from B. afzelii: full-length recombinant OspC from strain DK26 of Borrelia afzelii (SEQ ID NO: 7) (protein, listed as Borrelia afzelii)
# chain: MKKNTLSAILMTLFLFISCNNSGKGGDSASTNPADESAKGPNLTEISKKITDSNAFVLAVKEVETLVLSIDELAKKAIGQKIDNNNGLAALNNQNGSLLAGAYAISTLITEKLSKLKNLEELKTEIAKAKKCSEEFTNKLKSGHADLGKQDATDDHAKAAILKTHATTDKGAKEFKDLFESVEGLLKAAQVALTNSVKELTSPVVAESPKKP
# Tests used:
# [1] = tested on: polyclonal anti-OspC antibodies (IgM) in sera from LB patients; assay: Inhibition of binding of anti-OspC antibodies in patient sera to rOspC-coated ELISA plates; design: species or system human; details: for number of sera in which binding to rOspCfl was inhibited: of 5 antisera
# Excerpt: Therefore, a set of experiments have been carried out where the ability have been tested of a number of analogues of the C-terminus of SEQ ID NO: 3 to inhibit the immune reactivity between rOspCfl and selected antisera in an ELISA. More specifically, the ability of the various analogues to inhibit the binding of polyclonal anti-OspC antibodies in solution was examined in sera from LB patients to rOspC-coated ELISA plates.
# The immunoreactivity to OspC was specified by using six randomly selected NB sera with an OD>1.5 in the IgM rOspC ELISA. The respective serum dilutions were determined, based on a serum dilution curve obtained in the IgM rOspC ELISA, for each of the six sera. The highest dilution, which still achieved the maximal OD value was used. 5 sera were diluted 1:200, and one serum 1:1000. The sera were diluted in the buffer used for the IgM rOspC ELISAs.
# The affinity of the OspC derivatives was measured by incubation of each of the six sera with the respective OspC derivatives at 10 different dilutions (covering a two-fold range) overnight at 4° C. The rOspC ELISA was then performed as described previously, in order to determine the effect of the IgM binding to OspC.
# [2] = tested on: IgM antibodies to OspC in sera from patients; assay: Indirect ELISA for IgM antibodies to full-length and truncated recombinant OspC (rOspC ELISA); type: binding, human; details: for immunoassay results compared with rOspCfl from B. garinii: sera of Example 2
# Experimental: Indirect ELISA for IgM Antibodies to Full-length and Truncated Recombinant OspC (rOspC ELISA)
# Flat-bottom microdilution plates (Maxisorb; Nunc, Roskilde, Denmark) were coated with 100 μl of rOspC diluted in 0.05 M bicarbonate pH 9.6 for 1 hour at 20° C. on a rocker platform and thereafter overnight at 4° C. The optimum coating concentration was defined as the antigen dilution resulting in the highest ratio of the optical density (OD) between a positive and a negative control serum (P/N ratio). The plates were washed four times à one minute with PBS containing 0.5 M NaCL, and 0.1% (vol/vol) Tween 20 (pH 7.2) and unspecific protein binding was blocked with 100 μl 3% (wt/vol) milk powder in PBS for 1 hour. The plates were washed four times à one minute with PBS containing 0.5 M NaCL, and 0.1% (vol/vol) Tween 20 (pH 7.2). 100 μl of serum diluted 1:200 in PBS containing 0.1% (vol/vol) Tween 20, 0.02% NaN3 and 1% (wt/vol) milk powder was added to the wells and incubated for 2 h at 20° C. The plates were washed four times à one minute with PBS containing 0.5 M NaCL, and 0.1% (vol/vol) Tween 20 (pH 7.2) and 100 μl peroxidase conjugated rabbit anti-human immunoglobulin M (IgM) (Dakopats, Copenhagen, Denmark, code P-215) diluted 1:1000 in PBS pH 7.4 with 0.05% (vol/vol) Tween 20 and 1% (wt/vol) milk powder. After the incubation for 1 h at 20° C. the plates were washed four times à one minute with PBS containing 0.5 M NaCL, and 0.1% (vol/vol) Tween 20 (pH 7.2) and 200 μl of the substrate o-phenylenediamine (0.41 mg/ml; Sigma) in citrate buffer (pH 5) with 0.04% (vol/vol) H2O2) was added to each well. After 15 minutes protected from light, the enzymatic reaction was stopped by the addition of 50 μl of 3M H2SO4. The optical density (OD) at 492 nm was read spectrophotometrically (Immuno Reader, Easy reader EAR 400 AC—SLT Labinstruments, AUSTRIA). Samples were tested in duplicate and retested, if the two OD values differed more than 10% from the mean. To eliminate plate-to-plate and day-to-day variations, a reference serum pool based on seven western blot positive sera were included on every plate for construction of a standard dilution curve with a two fold dilution ranging from 1:200 to 1:6400. The OD value of every sample was adjusted to this standard curve. Positive and negative control sera were included on every plate. The positive control sera were diluted 1:200, 1:400 and 1:800 on every plate to check for parallelism between the standard reference curve and the dilution curve of the positive control sera.
# The diagnostic cutoff OD was adjusted to be 98% specific for an IgM assay on the basis of serum samples from 100 healthy danish blood donors, and was 0.230 for the IgM assay.
# In a preliminary setup, rOspCt was used in the above-described rOspC ELISA. Sera from 47 patients with EM, 50 with NB, 30 with ACA and 29 with syphilis were tested against rOspCt.
# The capability of an immunological agent according to the present invention to react with sera from patients in various stages of Lyme borreliosis was evaluated against that of recombinant OspC derived from B. garinii and against conventional flagellum ELISAs (performed as described in Hansen K. et al. (1991) and Hansen K. et al. (1988)). These flagellum assays (testing for IgM and IgG antibodies to native B. burgdorferi flagellum) are commercially available, a μ-capture ELISA (DAKO, Denmark code K006), and an indirect IgG ELISA (DAKO, Denmark code K416). Both assays use flagella purified from strain DK1 belonging to the genospecies of B. afzelii. The ELISAs were performed according to the instructions of the manufacturer, and the results were expressed as optical density (OD) values. In both assays the diagnostic cut-off level was adjusted to a specificity of 98% based on the examination of 100 blood donors.
molecule,measurement,setting,value
NH2-PPPPESPKKP-COOH (H-PPPPESPKKP-OH) [SEQ ID NO: 39],inhibition,[1]; Serum 1,70% inhibition
same,inhibition,[1]; Serum 2,100% inhibition
same,inhibition,[1]; Serum 3,100% inhibition
same,inhibition,[1]; Serum 4,0% inhibition
same,inhibition,[1]; Serum 5,40% inhibition
NH2-PVAAESPKKP-COOH (H-PVAAESPKKP-OH) [SEQ ID NO: 30],ability to inhibit binding between rOspCfl and the 5 antisera,[1],capable of inhibiting binding
NH2-PVVAESPKKP-CONH2 (H-PVVAESPKKP-NH2) [SEQ ID NO: 33],ability to inhibit binding between rOspCfl and the 5 antisera,[1],incapable of inhibiting binding
NH2-AVVAESPKKP-COOH (H-AVVAESPKKP-OH) [SEQ ID NO: 32],ability to inhibit binding between rOspCfl and the 5 antisera,[1],capable of inhibiting binding
NH2-PVVFESPKKP-COOH (H-PVVFESPKKP-OH) [SEQ ID NO: 29],ability to inhibit binding between rOspCfl and the 5 antisera,[1],capable of inhibiting binding
NH2-PVVAASPKKP-COOH (H-PVVAASPKKP-OH) [SEQ ID NO: 28],ability to inhibit binding between rOspCfl and the 5 antisera,[1],capable of inhibiting binding
NH2-PVVAESPAKP-COOH (H-PVVAESPAKP-OH) [SEQ ID NO: 25],number of sera in which binding to rOspCfl was inhibited,[1],3 sera
NH2-PAVAESPKKP-COOH (H-PAVAESPKKP-OH) [SEQ ID NO: 31],ability to inhibit binding between rOspCfl and the 5 antisera,[1],capable of inhibiting binding
NH2-PKKP-COOH (H-PKKP-OH) [SEQ ID NO: 22],patient sera in which binding between rOspCfl and antibodies was inhibited,[1]; six NB sera with OD>1.5 in the IgM rOspC ELISA,one single serum
NH2-PVVAEAPKKP-COOH (H-PVVAEAPKKP-OH) [SEQ ID NO: 27],ability to inhibit binding between rOspCfl and the 5 antisera,[1],capable of inhibiting binding
NH2-PVVAESPKAP-COOH (H-PVVAESPKAP-OH) [SEQ ID NO: 24],number of sera in which binding to rOspCfl was inhibited,[1],1 sera
NH2-PVVPESPKKP-COOH (H-PVVPESPKKP-OH) [SEQ ID NO: 37],inhibition,[1]; Serum 1,70% inhibition
same,inhibition,[1]; Serum 2,100% inhibition
same,inhibition,[1]; Serum 3,100% inhibition
same,inhibition,[1]; Serum 4,0% inhibition
same,inhibition,[1]; Serum 5,40% inhibition
NH2-PVVAESPKKA-COOH (H-PVVAESPKKA-OH) [SEQ ID NO: 23],number of sera in which binding to rOspCfl was inhibited,[1],0 sera
NH2-PVVAESAKKP-COOH (H-PVVAESAKKP-OH) [SEQ ID NO: 26],number of sera in which binding to rOspCfl was inhibited,[1],1 sera
"9-arg: variant of SEQ ID NO: 1 in which 9-lys was substituted with 9-arg (PVVAESPKRP; FRAGMENT TYPE C-terminal; STRAIN DK6, INDIVIDUAL ISOLATE BN1068; listed as Borrelia garinii)",ability to inhibit binding between rOspCfl and the 5 antisera,[1],no effect
NH2-PVVAES*KKP-COOH (H-PVVAES[Thz]KKP-OH; SMILES CC(C)[C@H](NC(=O)[C@@H]1CCCN1)C(=O)N[C@H](C(=O)N[C@@H](C)C(=O)N[C@@H](CCC(=O)O)C(=O)N[C@@H](CO)C(=O)N1CSC[C@H]1C(=O)N[C@@H](CCCCN)C(=O)N[C@@H](CCCCN)C(=O)N1CCC[C@H]1C(=O)O)C(C)C) [* designates L-thiazolidine-4-carboxylic acid],number of sera in which binding to rOspCfl was inhibited,[1],5 sera
NH2-PVVAESPKNP-COOH (H-PVVAESPKNP-OH) [SEQ ID NO: 38],inhibition,[1]; Serum 1,50% inhibition
same,inhibition,[1]; Serum 2,0% inhibition
same,inhibition,[1]; Serum 3,0% inhibition
same,inhibition,[1]; Serum 4,0% inhibition
same,inhibition,[1]; Serum 5,0% inhibition
B1,immunoassay results compared with rOspCfl from B. garinii,[2],almost identical picture
B2,Positive rOspCt ELISA results,"[2]; serum panel 1, IgM",no positives
B3,immunoassay results compared with rOspCfl from B. garinii,[2],almost identical picture
